Data: ChEMBL document CHEMBL1201862, “PubChem BioAssay data set” (2004)
One block for each molecule: values may come before it. Activity calls are given as the source filed them.

Assays:
[1] = target: T1, Corticotropin-releasing factor receptor 2/Corticotropin-releasing factor-binding protein (Homo sapiens, UniProt P24387+Q13324); assay: activators of CRF receptor 2 with binding protein – uHTS hits, confirmation (AID 602473); assay type: functional; conditions: read-out: EC50_Mean
T1 sequence (Q13324 whole entry): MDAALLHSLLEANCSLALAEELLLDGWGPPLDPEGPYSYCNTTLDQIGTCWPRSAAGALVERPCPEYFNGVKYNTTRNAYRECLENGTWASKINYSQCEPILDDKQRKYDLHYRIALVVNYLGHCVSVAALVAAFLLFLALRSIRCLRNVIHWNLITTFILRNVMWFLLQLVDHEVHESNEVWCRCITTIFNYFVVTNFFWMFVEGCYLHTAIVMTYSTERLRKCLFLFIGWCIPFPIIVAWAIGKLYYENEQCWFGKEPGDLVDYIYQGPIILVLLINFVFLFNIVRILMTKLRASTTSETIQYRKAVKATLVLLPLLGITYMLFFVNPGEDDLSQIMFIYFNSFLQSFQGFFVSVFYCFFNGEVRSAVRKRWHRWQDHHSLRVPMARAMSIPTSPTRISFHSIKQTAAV
T1 sequence (P24387 whole entry): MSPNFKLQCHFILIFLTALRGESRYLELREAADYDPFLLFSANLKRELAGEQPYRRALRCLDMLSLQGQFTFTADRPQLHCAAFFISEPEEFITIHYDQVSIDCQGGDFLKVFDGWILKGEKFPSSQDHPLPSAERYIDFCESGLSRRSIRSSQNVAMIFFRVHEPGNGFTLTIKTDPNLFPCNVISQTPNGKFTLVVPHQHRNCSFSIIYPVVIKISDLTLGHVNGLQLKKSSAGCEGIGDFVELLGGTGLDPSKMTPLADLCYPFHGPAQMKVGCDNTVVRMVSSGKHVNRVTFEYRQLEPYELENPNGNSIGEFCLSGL

[2] = target: T1, Corticotropin-releasing factor receptor 2/Corticotropin-releasing factor-binding protein; assay: Dose Response confirmation of uHTS hits for small molecule antagonists of the CRF-binding protein and CRF-R2 receptor complex.; assay type: functional; conditions: read-out: IC50_Mean
[3] = target: Solute carrier family 12 member 2/member 5 (Homo sapiens, UniProt P55011+Q9H2X9); assay: KCC2 and NKCC1 inhibition by rubidium flux, cell-based, NKCC1 counter-screen (AID 1734); assay type: functional, HEK293
[4] = target: RNA-editing ligase 1, mitochondrial (Trypanosoma brucei brucei, UniProt P86926); assay: inhibition of trypanosome RNA editing ligase – biochemical, fluorescence, Trypanosoma brucei, dose response (AID 1117295); assay type: functional
Estrogen receptor beta = Estrogen receptor beta (Homo sapiens, UniProt Q92731);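 also: recombinant ER-beta bound to coactivator SRC1 peptide in presence of estradiol agonist; inhibitors block coactivator peptide binding and lower the FRET signal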
[5] = P. falciparum Dd2 growth inhibitors, dose response, SYBR Green, cherry-picked samples (AID 1159567); assay type: functional, cell-based
[6] = toxicity to human hepatoma HepG2 cells – cell-based, cherry-picked samples, cytotoxicity control, dose response (AID 1159577); assay type: functional
NADPH oxidase 1 = NADPH oxidase 1 (Homo sapiens, UniProt Q9Y5S8); assay type: functional, cell-based;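 also: Cell-based assay with luminescence read-out, IC50 derived from inhibitor dose-response curves; intracellular ROS from endogenous NOX1 in intact HT29 colon cancer cells; potency of inhibitors that lower the ROS luminescence signal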
[7] = NIH-3T3 fibroblast cytotoxicity, dose response, cytotoxicity control, cell-based, fluorescence, Alamar Blue, secondary assay (AID 2327); assay type: functional;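 also: NIH-3T3 mouse fibroblasts cultured with fluconazole at 8 µg/mL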
[8] = non-specific 3'UTR reporter inhibition in Clone20-Shn3RL – cell-based, Renilla luciferase, cherry-picked, counter-screen for Shn3 inhibitor project, dose response (AID 624133); assay type: functional
Galanin receptor type 2 = Galanin receptor type 2 (Homo sapiens, UniProt O43603); assay: Dose Response cell-based high-throughput screening assay to identify antagonists of galanin receptor 2 (GALR2). [Related pubchem assays: 828, 866 ]; assay type: functional
INS1 = assay: INS-1E survival protection against cytokine death – cell-based, luminescence, retest, dose response (AID 449756); assay type: functional; conditions: Rattus norvegicus;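 also: cell death triggered by IL-1 beta plus TNF-alpha plus IFN-gamma mixture; protective hits raise ATP signal compared with cytokine alone wells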
[9] = fluconazole-exposed Candida albicans growth modulators – fluorescence, retest, confirmation (AID 2467); assay type: functional, cell-based
[10] = loss of viability in HepG2 cells – cell-based, CellTiter-Glo, cherry-picked, cytotoxicity control for Shn3 inhibitor project, dose response (AID 624134); assay type: functional
[11] = HEK-293T cell viability reduction – luminescence, B-cell screen hits, cytotoxicity control for BCR NF-kB inhibitor project, dose response (AID 489021); assay type: functional, cell-based;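 also: HEK-293T cells carrying an NF-kB luciferase reporter; cells exposed to compound for about 14 hours before viability readout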
[12] = target: COUP transcription factor 2 (Homo sapiens, UniProt P24468); assay: Luminescence-based cell-based high throughput dose response assay to identify inhibitors of COUP-TFII (NR2F2).; assay type: functional;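 also: HEK293 cells transiently cotransfected with COUP-TFII expression vector and reporter; luciferase reporter luminescence driven by COUP-TFII from the pX2-168 reporter plasmid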
[13] = reduction of Shn3 3'UTR-driven luciferase in osteoblasts – cell-based, Clone20 osteoblasts, firefly luciferase, cherry-picked, dose response (AID 624132); assay type: functional;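 also: firefly luciferase luminescence from reporter carrying the Shn3 3'UTR in osteoblasts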
Vero [14] = assay: Vero 76 cell viability after compound exposure – Vero 76 cells, synthesized analogs, cytotoxicity control for West Nile virus antiviral project, SAR follow-up (AID 2414); assay type: functional; conditions: Chlorocebus sabaeus
Prothrombin = Prothrombin (Homo sapiens, UniProt P00734); assay: Thrombin 1536 HTS Dose Response Confirmation. [Related pubchem assays: 1046 (Thrombin 1536 HTS; hits were confirmed in this assay)]; assay type: functional
Vero [15] = assay: Vero cell viability after compound exposure – synthesized analogs, set II, cytotoxicity control for West Nile virus antiviral project, SAR follow-up (AID 2402); assay type: functional; conditions: Chlorocebus sabaeus
[16] = target: Neuropeptides B/W receptor type 1 (Homo sapiens, UniProt P48145); assay: Fluorescence-based dose response cell-based high throughput screening assay to identify antagonists of the G-protein coupled receptor 7 (GPR7). [Related pubchem assays: 1952 (Screening assay (GPR7 antagonists).), 1880 (Summary AID.)]; assay type: functional
[17] = target: Melanin-concentrating hormone receptor 1 (Homo sapiens, UniProt Q99705); assay: Fluorescence-based counterscreen for antagonists of the G-protein coupled receptor 7 (GPR7): cell-based high throughput dose response assay to identify antagonists of the melanin-concentrating hormone receptor 1 (MCHR1).; assay type: functional
[18] = target: Glyceraldehyde-3-phosphate dehydrogenase (Homo sapiens, UniProt P04406)
Bcl-2-related protein A1 [19] = target: T2, Bcl-2-related protein A1 (Mus musculus, UniProt Q07440); assay: small-molecule antagonists of Bfl-1/BH3 interaction – biochemical, TR-FRET, mouse Bfl-1, confirmation (AID 621);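 also: TR-FRET binding of GST-Bfl-1 to FITC-labelled Bid peptide via terbium antibody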
T2 sequence (Q07440 whole entry): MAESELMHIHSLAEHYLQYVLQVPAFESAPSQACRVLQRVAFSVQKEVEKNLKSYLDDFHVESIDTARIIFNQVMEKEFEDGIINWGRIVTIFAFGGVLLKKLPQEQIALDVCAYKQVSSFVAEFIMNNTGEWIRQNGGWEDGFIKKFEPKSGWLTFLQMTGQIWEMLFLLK

Bcl-2-related protein A1 [20] = target: T2, Bcl-2-related protein A1; assay: Bfl-1 binding inhibitors, SAR follow-up, biochemical, fluorescence polarization (AID 1070)

Estrogen receptor beta, sequence (Q92731 whole entry): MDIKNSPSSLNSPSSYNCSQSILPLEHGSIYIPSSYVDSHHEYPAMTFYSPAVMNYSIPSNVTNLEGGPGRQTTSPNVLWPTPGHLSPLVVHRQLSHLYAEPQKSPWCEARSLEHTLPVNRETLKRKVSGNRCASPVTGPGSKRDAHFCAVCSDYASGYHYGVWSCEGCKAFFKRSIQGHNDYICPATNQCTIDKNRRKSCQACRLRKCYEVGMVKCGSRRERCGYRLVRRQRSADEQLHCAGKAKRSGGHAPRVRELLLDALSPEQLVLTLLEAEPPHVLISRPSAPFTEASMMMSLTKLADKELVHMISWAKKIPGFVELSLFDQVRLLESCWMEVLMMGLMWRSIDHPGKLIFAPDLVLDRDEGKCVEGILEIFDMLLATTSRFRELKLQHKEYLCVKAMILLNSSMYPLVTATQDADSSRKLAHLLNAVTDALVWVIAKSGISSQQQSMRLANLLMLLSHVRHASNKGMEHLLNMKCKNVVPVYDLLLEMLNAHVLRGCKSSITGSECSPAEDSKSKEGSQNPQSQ
Neuropeptides B/W receptor type 1, sequence (P48145 whole entry): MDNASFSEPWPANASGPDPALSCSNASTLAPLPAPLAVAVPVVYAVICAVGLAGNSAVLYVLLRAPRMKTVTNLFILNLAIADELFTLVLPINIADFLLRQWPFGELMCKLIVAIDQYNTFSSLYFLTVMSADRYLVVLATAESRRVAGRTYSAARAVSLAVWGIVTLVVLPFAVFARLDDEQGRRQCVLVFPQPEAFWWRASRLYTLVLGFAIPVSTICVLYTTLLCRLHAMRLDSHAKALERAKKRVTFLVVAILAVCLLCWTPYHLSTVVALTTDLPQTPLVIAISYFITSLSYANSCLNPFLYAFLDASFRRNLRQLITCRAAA
Galanin receptor type 2, sequence (O43603 whole entry): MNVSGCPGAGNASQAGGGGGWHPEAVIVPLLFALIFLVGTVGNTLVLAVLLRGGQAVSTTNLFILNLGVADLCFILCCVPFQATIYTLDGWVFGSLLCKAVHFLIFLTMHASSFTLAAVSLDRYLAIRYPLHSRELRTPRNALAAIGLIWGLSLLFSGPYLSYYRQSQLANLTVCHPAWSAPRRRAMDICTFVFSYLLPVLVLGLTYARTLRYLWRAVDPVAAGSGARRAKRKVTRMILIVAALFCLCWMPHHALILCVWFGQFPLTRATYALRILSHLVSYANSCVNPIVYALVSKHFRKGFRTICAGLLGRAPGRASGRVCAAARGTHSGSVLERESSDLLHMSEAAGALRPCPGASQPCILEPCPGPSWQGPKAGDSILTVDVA
Melanin-concentrating hormone receptor 1, sequence (Q99705 whole entry): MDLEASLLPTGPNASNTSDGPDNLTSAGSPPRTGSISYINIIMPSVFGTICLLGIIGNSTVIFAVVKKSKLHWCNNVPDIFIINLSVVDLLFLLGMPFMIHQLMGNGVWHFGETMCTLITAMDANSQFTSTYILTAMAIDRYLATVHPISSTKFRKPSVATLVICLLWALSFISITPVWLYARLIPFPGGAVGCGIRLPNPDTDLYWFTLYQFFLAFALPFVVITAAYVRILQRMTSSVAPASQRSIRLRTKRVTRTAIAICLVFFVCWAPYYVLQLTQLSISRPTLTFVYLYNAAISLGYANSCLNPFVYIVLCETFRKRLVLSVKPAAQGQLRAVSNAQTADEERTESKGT
Glyceraldehyde-3-phosphate dehydrogenase, sequence (P04406 whole entry): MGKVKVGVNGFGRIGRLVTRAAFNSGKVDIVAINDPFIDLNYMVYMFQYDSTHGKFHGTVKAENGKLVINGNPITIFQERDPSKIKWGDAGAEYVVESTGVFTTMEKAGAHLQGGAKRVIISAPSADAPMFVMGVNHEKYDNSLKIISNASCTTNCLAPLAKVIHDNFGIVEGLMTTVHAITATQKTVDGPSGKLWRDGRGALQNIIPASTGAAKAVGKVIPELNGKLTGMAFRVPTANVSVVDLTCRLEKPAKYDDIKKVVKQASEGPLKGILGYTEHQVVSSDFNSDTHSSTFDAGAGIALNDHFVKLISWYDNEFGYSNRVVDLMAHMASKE
RNA-editing ligase 1, mitochondrial, sequence (P86926 whole entry): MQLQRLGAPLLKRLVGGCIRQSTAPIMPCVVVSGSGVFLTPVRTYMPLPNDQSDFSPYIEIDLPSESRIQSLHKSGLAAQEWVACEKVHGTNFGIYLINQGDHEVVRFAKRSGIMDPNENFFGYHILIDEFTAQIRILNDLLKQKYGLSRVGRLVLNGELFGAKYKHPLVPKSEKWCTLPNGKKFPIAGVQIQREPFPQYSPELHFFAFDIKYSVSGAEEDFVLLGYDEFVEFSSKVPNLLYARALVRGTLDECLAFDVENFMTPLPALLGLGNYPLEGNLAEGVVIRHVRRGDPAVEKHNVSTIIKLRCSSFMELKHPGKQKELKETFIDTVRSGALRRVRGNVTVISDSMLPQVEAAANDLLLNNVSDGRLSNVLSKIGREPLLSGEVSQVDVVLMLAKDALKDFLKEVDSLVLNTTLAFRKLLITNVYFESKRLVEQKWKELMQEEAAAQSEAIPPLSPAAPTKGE
NADPH oxidase 1, sequence (Q9Y5S8 whole entry): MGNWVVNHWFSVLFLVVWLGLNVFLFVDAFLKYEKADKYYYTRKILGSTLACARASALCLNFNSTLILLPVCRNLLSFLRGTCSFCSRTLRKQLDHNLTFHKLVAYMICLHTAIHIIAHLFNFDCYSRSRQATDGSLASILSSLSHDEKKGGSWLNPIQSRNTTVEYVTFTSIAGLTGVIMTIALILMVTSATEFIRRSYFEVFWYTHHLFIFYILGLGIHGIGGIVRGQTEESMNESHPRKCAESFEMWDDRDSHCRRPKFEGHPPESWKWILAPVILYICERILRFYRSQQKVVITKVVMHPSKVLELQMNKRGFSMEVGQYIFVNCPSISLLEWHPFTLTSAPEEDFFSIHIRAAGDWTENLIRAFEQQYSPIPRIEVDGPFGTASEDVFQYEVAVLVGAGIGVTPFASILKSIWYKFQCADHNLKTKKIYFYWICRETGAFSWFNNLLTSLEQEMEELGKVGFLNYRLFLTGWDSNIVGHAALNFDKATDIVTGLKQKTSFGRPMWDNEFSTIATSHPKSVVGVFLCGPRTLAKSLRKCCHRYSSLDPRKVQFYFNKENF
COUP transcription factor 2, sequence (P24468 whole entry): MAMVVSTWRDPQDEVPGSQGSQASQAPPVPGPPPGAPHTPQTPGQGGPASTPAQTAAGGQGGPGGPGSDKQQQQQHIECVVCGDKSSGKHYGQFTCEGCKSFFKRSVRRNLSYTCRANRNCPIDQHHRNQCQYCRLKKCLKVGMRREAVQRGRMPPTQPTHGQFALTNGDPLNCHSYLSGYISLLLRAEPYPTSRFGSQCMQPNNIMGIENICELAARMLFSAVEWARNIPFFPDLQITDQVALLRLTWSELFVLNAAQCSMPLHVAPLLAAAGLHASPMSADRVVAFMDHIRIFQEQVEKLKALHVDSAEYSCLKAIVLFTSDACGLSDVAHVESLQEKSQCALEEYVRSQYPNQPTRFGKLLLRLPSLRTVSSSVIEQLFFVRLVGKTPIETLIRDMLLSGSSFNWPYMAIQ

- EC50 [1]: > 53 µM (inactive)
- IC50 [2]: > 47.1 µM (inactive)
- IC50 [3]: 2.2 µM (active)
Compound: O=C(NCCOc1ccccc1F)c1ccccc1SCc1ccc(F)cc1

Compound: Cc1c(P(=S)(c2ccccc2)c2ccccc2)n2ccccc2[n+]1C/C=C/c1ccccc1
- IC50 [4]: > 96.6 µM (inactive)

- IC50 (Estrogen receptor beta): > 50 µM (not active)
Compound: CCCCCCN/C=C1\C(=O)CC(C)(C)C(C(=O)OC)C1=O (stereo not given)

Compound: COc1ccccc1NC(=O)N1CCCCN2[C@@H](CO)[C@@H](c3ccc(C#CC4CC4)cc3)[C@@H]2C1
- AC50 [5]: 1.03 µM (active)
- AC50 [6]: 9.69 µM (active)

- IC50 (NADPH oxidase 1): > 17 µM (not active)
Compound: O=C(O)c1sc2ccccc2c1Cl

Compound: Cc1ccc(S(=O)(=O)CC2CSc3nc4ccccc4n32)cc1 (stereo not given)
- EC50 [7]: > 160 µM (inactive)
- AC50 [8]: 24.4 µM (active)
- IC50 (Galanin receptor type 2): > 42 µM (not active)
- AC50 (INS1): 3.55 µM (active)
- EC50 [9]: 1.15 µM (active)
- AC50 [10]: 0.592 µM (active)
- IC50 [11]: > 80 µM (inactive)
- IC50 [12]: 4.21 µM (active)
- AC50 [13]: 0.347 µM (active)

Compound: COc1cccc(-n2c(SCC(=O)Nc3ccc4c(c3)CCC4)nc3ccccc3c2=O)c1
- CC50 (Vero [14]): > 66.6 µM (active)
- IC50 (Prothrombin): > 50 µM (not active)
- CC50 (Vero [15]): > 100 µM (active)

Compound: OC1(c2ccc(F)cc2)CC2CCC(C1)N2Cc1nnnn1C1CCCCC1 (stereo not given)
- IC50 [16]: 28.3 µM (not active)
- IC50 [17]: 24 µM (not active)

Compound: O=C1C(Cl)=C(Cl)C(=O)N1c1cc(Cl)cc(Cl)c1
- IC50 [18]: > 100 µM (not active)
- IC50 (Bcl-2-related protein A1 [19]): 2.07 µM (active)
- IC50 (Bcl-2-related protein A1 [20]): 1.42 µM (active)
